Source: patent publication US8735414B2 (priority 2009, dated 2014)

Tests used:
[1] = tested on: bicistronic HCV replicon (replicon RNA, GenBank Accession No. AJ242654); assay: HCV Replicon Assay; type: cell-based; settings: Hepatitis C virus, 72 h, read-out: Replicon IC50

Row | SMILES | IC50 [1] [nM] | melting point
1 | Cc1cc2c(cc1F)c(C#N)c(-c1ccc(S(=O)(=O)N[C@@H](C)C(F)(F)F)cn1)n2-c1cncnc1 [compound 894, 6-[3-cyano-5-fluoro-6-methyl-1-(pyrimidin-5-yl)-1H-indol-2-yl]-N-[(2S)-1,1,1-trifluoropropan-2-yl]pyridine-3-sulfonamide] | < 500 | 198 to 202 °C
2 | CC(C)c1ccc2c(C#N)c(-c3ccc(S(=O)(=O)NC(CF)CF)cn3)n(C3CCCC3)c2c1 [compound 457, 6-[3-cyano-1-cyclopentyl-6-(propan-2-yl)-1H-indol-2-yl]-N-(1,3-difluoropropan-2-yl)pyridine-3-sulfonamide] | < 500 | 163 to 172 °C
3 | Cc1ccc2c(C#N)c(-c3ccc(S(=O)(=O)N[C@H](C)C(F)(F)F)cn3)n(C3CCCC3)c2c1 [compound 214, 6-(3-cyano-1-cyclopentyl-6-methyl-1H-indol-2-yl)-N-[(2R)-1,1,1-trifluoropropan-2-yl]pyridine-3-sulfonamide] | < 500 | 176 to 182 °C
4 | C[C@@H](NS(=O)(=O)c1ccc(-c2c(C#N)c3cc(F)ccc3n2C2CCCC2)nc1)C(F)(F)F [compound 220, 6-(3-cyano-1-cyclopentyl-5-fluoro-1H-indol-2-yl)-N-[(2R)-1,1,1-trifluoropropan-2-yl]pyridine-3-sulfonamide] | < 500 | 158 to 160 °C
5 | CC(C)S(=O)(=O)Nc1ccc(-c2c(C#N)c3ccc(OCC(F)(F)F)cc3n2CC2CC2)nc1 [compound 283, N-{6-[3-cyano-1-(cyclopropylmethyl)-6-(2,2,2-trifluoroethoxy)-1H-indol-2-yl]pyridin-3-yl}propane-2-sulfonamide] | 2000 to 5000 | 188 to 193 °C
6 | Cc1cc2c(cc1F)c(C#N)c(-c1ccc(S(=O)(=O)N[C@@H](C)C(F)(F)F)cn1)n2-c1ccc(F)c(C)n1 [compound 961, 6-[3-cyano-5-fluoro-1-(5-fluoro-6-methylpyridin-2-yl)-6-methyl-1H-indol-2-yl]-N-[(2S)-1,1,1-trifluoropropan-2-yl]pyridine-3-sulfonamide] | < 500 | 240 to 246 °C
7 | COc1cc2c(cc1F)c(C#N)c(-c1ccc(S(=O)(=O)NC(CF)CF)cn1)n2CC1CC1 [compound 225, 6-[3-cyano-1-(cyclopropylmethyl)-5-fluoro-6-methoxy-1H-indol-2-yl]-N-(1,3-difluoropropan-2-yl)pyridine-3-sulfonamide] | < 500 | 196 to 199 °C
8 | CCc1cc(F)c2c(C(N)=O)c(-c3ccc(NS(=O)(=O)C(C)(C)C)cn3)n(C3CCC3)c2c1 [compound 1110, 2-{5-[(tert-butylsulfonyl)amino]pyridin-2-yl}-1-cyclobutyl-6-ethyl-4-fluoro-1H-indole-3-carboxamide] | < 500 | 259 to 263 °C
9 | Cc1cc2c(cc1F)c(C#N)c(-c1ccc(S(=O)(=O)NC(C)C)cn1)n2C1CCC1 [compound 655, 6-(3-cyano-1-cyclobutyl-5-fluoro-6-methyl-1H-indol-2-yl)-N-(propan-2-yl)pyridine-3-sulfonamide] | < 500 | 222 to 226 °C
10 | CC(C)(C)S(=O)(=O)Nc1ccc(-c2c(C(N)=O)c3c(F)cc(C4CC4)cc3n2C2CCCCC2)nc1 [compound 1097, 2-{5-[(tert-butylsulfonyl)amino]pyridin-2-yl}-1-cyclohexyl-6-cyclopropyl-4-fluoro-1H-indole-3-carboxamide] | < 500 | 275 to 285 °C (dec.)
11 | N#Cc1c(-c2ccc(S(=O)(=O)NC(CF)CF)cn2)n(CC2CC2)c2cc(OC(F)F)ccc12 [compound 41, 6-[3-cyano-1-(cyclopropylmethyl)-6-(difluoromethoxy)-1H-indol-2-yl]-N-(1,3-difluoropropan-2-yl)pyridine-3-sulfonamide] | < 500 | 150 to 151 °C
12 | CC(C)(C)S(=O)(=O)Nc1ccc(-c2c(C(N)=O)c3cc(F)c(OCF)cc3n2C2CCCCC2)cn1 [compound 1102, 2-{6-[(tert-butylsulfonyl)amino]pyridin-3-yl}-1-cyclohexyl-5-fluoro-6-(fluoromethoxy)-1H-indole-3-carboxamide] | < 500 | 274 to 276 °C
13 | C[C@H](NS(=O)(=O)c1cnc(-c2c(C#N)c3cc(F)ccc3n2CC2CC2)nc1)C1CC1 [compound 531, 2-[3-cyano-1-(cyclopropylmethyl)-5-fluoro-1H-indol-2-yl]-N-[(1S)-1-cyclopropylethyl]pyrimidine-5-sulfonamide] | < 500 | 184 to 188 °C
14 | N#Cc1c(-c2ccc(S(=O)(=O)NC(CF)CF)cn2)n(-c2ccccn2)c2ccc(Cl)cc12 [compound 443, 6-[5-chloro-3-cyano-1-(pyridin-2-yl)-1H-indol-2-yl]-N-(1,3-difluoropropan-2-yl)pyridine-3-sulfonamide] | < 500 | 187 to 188 °C
15 | Cc1cc2c(cc1Cl)c(C#N)c(-c1ncc(S(=O)(=O)NC(CF)CF)cn1)n2C1CCC1 [compound 447, 2-(5-chloro-3-cyano-1-cyclobutyl-6-methyl-1H-indol-2-yl)-N-(1,3-difluoropropan-2-yl)pyrimidine-5-sulfonamide] | < 500 | 275 to 279 °C
16 | Cc1cc2c(cc1F)c(C(N)=O)c(-c1ccc(S(N)(=O)=O)cn1)n2C1CCCCC1 [compound 715, 1-cyclohexyl-5-fluoro-6-methyl-2-(5-sulfamoylpyridin-2-yl)-1H-indole-3-carboxamide] | < 500 | 254 to 257 °C
17 | N#Cc1c(-c2ccc(S(=O)(=O)NC3(C(F)(F)F)CC3)cn2)n(-c2ncccn2)c2cc(OC(F)F)ccc12 [compound 690, 6-[3-cyano-6-(difluoromethoxy)-1-(pyrimidin-2-yl)-1H-indol-2-yl]-N-[1-(trifluoromethyl)cyclopropyl]pyridine-3-sulfonamide] | 500 to 2000 | 170 to 174 °C
18 | COc1ccc2c(c1)c(C#N)c(-c1ncc(S(=O)(=O)NC(CF)CF)cn1)n2C1CCCC1 [compound 572, 2-(3-cyano-1-cyclopentyl-5-methoxy-1H-indol-2-yl)-N-(1,3-difluoropropan-2-yl)pyrimidine-5-sulfonamide] | < 500 | 200 to 202 °C
19 | CC(C)n1c(-c2ccc(S(=O)(=O)NC(CF)CF)cn2)c(C#N)c2cc(Cl)ccc21 [compound 65, 6-[5-chloro-3-cyano-1-(propan-2-yl)-1H-indol-2-yl]-N-(1,3-difluoropropan-2-yl)pyridine-3-sulfonamide] | < 500 | 212 to 215 °C
20 | C[C@@H](NS(=O)(=O)c1ccc(-c2c(C#N)c3ccc(OC(F)F)cc3n2-c2ccccn2)nc1)C(F)(F)F [compound 534, 6-[3-cyano-6-(difluoromethoxy)-1-(pyridin-2-yl)-1H-indol-2-yl]-N-[(2R)-1,1,1-trifluoropropan-2-yl]pyridine-3-sulfonamide] | < 500 | 159 to 161 °C
21 | C[C@H](NS(=O)(=O)c1cnc(-c2c(C#N)c3cc(F)ccc3n2C2CCCCC2)nc1)C1CC1 [compound 528, 2-(3-cyano-1-cyclohexyl-5-fluoro-1H-indol-2-yl)-N-[(1S)-1-cyclopropylethyl]pyrimidine-5-sulfonamide] | < 500 | 219 to 221 °C
22 | CC(C)NS(=O)(=O)c1cnc(-c2c(C#N)c3cc(Cl)ccc3n2C2CCCC2)nc1 [compound 314, 2-(5-chloro-3-cyano-1-cyclopentyl-1H-indol-2-yl)-N-(propan-2-yl)pyrimidine-5-sulfonamide] | < 500 | 239 to 245 °C
23 | C[C@H](NS(=O)(=O)c1ccc(-c2c(C#N)c3ccc(CC(F)F)cc3n2C2CCC2)nc1)C(F)(F)F [compound 384, 6-[3-cyano-1-cyclobutyl-6-(2,2-difluoroethyl)-1H-indol-2-yl]-N-[(2S)-1,1,1-trifluoropropan-2-yl]pyridine-3-sulfonamide] | < 500 | 172 to 174 °C
24 | CC(NS(=O)(=O)c1ccc(-c2c(C#N)c3ccc(OC(F)F)cc3n2C2CCCC2)nc1)C(F)(F)F (stereo not shown) [compound 53, 6-[3-cyano-1-cyclopentyl-6-(difluoromethoxy)-1H-indol-2-yl]-N-(1,1,1-trifluoropropan-2-yl)pyridine-3-sulfonamide] | < 500 | 189 to 195 °C
25 | N#Cc1c(-c2ncc(S(=O)(=O)NC(CF)CF)cn2)n(CC2CC2)c2cc(C3CC3)ccc12 [compound 344, 2-[3-cyano-6-cyclopropyl-1-(cyclopropylmethyl)-1H-indol-2-yl]-N-(1,3-difluoropropan-2-yl)pyrimidine-5-sulfonamide] | < 500 | 205 to 210 °C
26 | C[C@H](NS(=O)(=O)c1ccc(-c2c(C#N)c3cc(F)ccc3n2C2CCCCC2)nc1)C1CC1 [compound 250, 6-(3-cyano-1-cyclohexyl-5-fluoro-1H-indol-2-yl)-N-[(1S)-1-cyclopropylethyl]pyridine-3-sulfonamide] | < 500 | 161 to 163 °C
27 | Cc1cc2c(cc1F)c(C#N)c(-c1ccc(S(=O)(=O)N[C@@H](C)C(F)(F)F)cn1)n2-c1ccncn1 [compound 896, 6-[3-cyano-5-fluoro-6-methyl-1-(pyrimidin-4-yl)-1H-indol-2-yl]-N-[(2S)-1,1,1-trifluoropropan-2-yl]pyridine-3-sulfonamide] | < 500 | 214 to 219 °C
28 | CC(C)NS(=O)(=O)c1cnc(-c2c(C(N)=O)c3cc(Cl)ccc3n2C2CCC2)nc1 [compound 745, 5-chloro-1-cyclobutyl-2-[5-(propan-2-ylsulfamoyl)pyrimidin-2-yl]-1H-indole-3-carboxamide] | < 500 | 245 to 247 °C
29 | COc1ccc2c(C#N)c(-c3ccc(S(=O)(=O)NC(CF)CF)cn3)n(C3CCC3)c2c1 [compound 229, 6-(3-cyano-1-cyclobutyl-6-methoxy-1H-indol-2-yl)-N-(1,3-difluoropropan-2-yl)pyridine-3-sulfonamide] | < 500 | 174 to 177 °C
